Test results taken from ChEMBL document CHEMBL1201862, “PubChem BioAssay data set” (2004).
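Where inhibition never reached the appropriate level, the endpoint shown equals the highest concentration tested. Otherwise, values were interpolated linearly from a five-concentration, 48-hour dose response in 96-well plates. Here, GI50 denotes the concentration required for 50% inhibition of growth.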 Activity calls are given as the source filed them. Cut-off read from the data, not from the text of the source: active = GI50 up to about 1.1 µM and inactive = higher.

Assays:
Assay in all cases: NCI-60 cell line screen, 48 h
[1] = system: A498
[2] = system: CCRF-CEM
[3] = system: DU-145
[4] = system: HCT-15
[5] = system: Hs-578T
[6] = system: M14
[7] = system: MCF7
[8] = system: NCI-H226
[9] = system: NCI-H23
[10] = system: NCI-H522
[11] = system: OVCAR-5
[12] = system: PC-3
[13] = system: RXF 393
[14] = system: SK-MEL-28
[15] = system: SK-MEL-5
[16] = system: SK-OV-3
[17] = system: SR
[18] = system: UACC-257
[19] = system: UACC-62
[20] = system: UO-31

Row | SMILES | GI50 [1] | GI50 [2] | GI50 [3] | GI50 [4] | GI50 [5] | GI50 [6] | GI50 [7] | GI50 [8] | GI50 [9] | GI50 [10] | GI50 [11] | GI50 [12] | GI50 [13] | GI50 [14] | GI50 [15] | GI50 [16] | GI50 [17] | GI50 [18] | GI50 [19] | GI50 [20]
1 | Nc1cc(S(N)(=O)=O)ccc1SSc1ccc(S(N)(=O)=O)cc1N | > 100 µM (inactive) | 8.49 µM (inactive) | > 100 µM (inactive) | > 100 µM | > 100 µM (inactive) | > 100 µM (inactive) | > 100 µM (inactive) | > 100 µM (inactive) | > 100 µM (inactive) | > 100 µM (inactive) | > 100 µM (inactive) | > 100 µM (inactive) | > 100 µM (inactive) | > 100 µM (inactive) | > 52.4 µM (inactive) | > 100 µM (inactive) | 57 µM (inactive) | > 100 µM (inactive) | > 100 µM (inactive) | > 100 µM (inactive)
2 | COc1cccc(C2CC(C)(O)Oc3cc4c(cc32)OCO4)c1O (stereo not given) | 41.7 µM (inactive) | 13.3 µM (inactive) | 22.6 µM (inactive) | 21.7 µM | 15.4 µM (inactive) | 13.5 µM (inactive) | 11.4 µM (inactive) | 17.4 µM (inactive) | 30.4 µM (inactive) | 20.1 µM (inactive) | 27 µM (inactive) | 27.2 µM (inactive) | 26.3 µM (inactive) | 35.2 µM (inactive) | 9.31 µM (inactive) | 28.5 µM (inactive) | 4.63 µM (inactive) | 39.4 µM (inactive) | 15.7 µM (inactive) | 35.6 µM (inactive)
3 | COc1cccc(NC(=O)CC(=O)N2N=C(C)C(/N=N\c3ccc(S(=O)(=O)c4ccc(/N=N/C5C(=O)N(C(=O)CC(=O)Nc6cccc(OC)c6)N=C5C)cc4)cc3)C2=O)c1 (stereo not given) | > 100 µM (inactive) | > 100 µM (inactive) | > 100 µM (inactive) | > 100 µM | > 100 µM (inactive) | > 100 µM (inactive) | > 100 µM (inactive) | > 100 µM (inactive) | > 100 µM (inactive) | > 100 µM (inactive) | > 100 µM (inactive) | > 100 µM (inactive) | > 100 µM (inactive) | > 100 µM (inactive) | > 100 µM (inactive) | > 100 µM (inactive) | > 100 µM (inactive) | > 100 µM (inactive) | > 100 µM (inactive) | > 100 µM (inactive)
4 | Fc1nc(-c2c3ccccc3c3sc4ccccc4n23)nc(N2CCOCCOCCOCCOCC2)n1 | 91.4 µM (inactive) | 54.5 µM (inactive) | > 100 µM (inactive) | > 100 µM | 37.3 µM (inactive) | > 100 µM (inactive) | > 100 µM (inactive) | > 100 µM (inactive) | > 100 µM (inactive) | > 100 µM (inactive) | > 100 µM (inactive) | > 100 µM (inactive) | 18.5 µM (inactive) | > 100 µM (inactive) | > 100 µM (inactive) | 71 µM (inactive) | 11.2 µM (inactive) | > 100 µM (inactive) | > 100 µM (inactive) | > 100 µM (inactive)
5 | Cc1ccc(C2=NN=C3C(c4ccccc4)=Nc4ccccc4N3C2)cc1 | > 53.1 µM (inactive) | 1.88 µM (inactive) | 3.14 µM (inactive) | 4.73 µM | 9.16 µM (inactive) | 3.64 µM (inactive) | 8.38 µM (inactive) | 12.9 µM (inactive) | 25.7 µM (inactive) | 2.92 µM (inactive) | 18 µM (inactive) | 11.8 µM (inactive) | 4.41 µM (inactive) | > 38 µM (inactive) | 6.31 µM (inactive) | 21 µM (inactive) | 1.56 µM (inactive) | 4.03 µM (inactive) | 15.7 µM (inactive) | 4.1 µM (inactive)
6 | COc1cc(NC(C)=O)ccc1C(=O)N/N=C/c1ccc(Cl)cc1Cl | 24.1 µM (inactive) | 95.3 µM (inactive) | 26.3 µM (inactive) | 83 µM | 32.7 µM (inactive) | 48.1 µM (inactive) | 4.42 µM (inactive) | 77.1 µM (inactive) | 71.9 µM (inactive) | 45.2 µM (inactive) | 46.3 µM (inactive) | 34.8 µM (inactive) | 20.7 µM (inactive) | 59.4 µM (inactive) | 77.3 µM (inactive) | 29.7 µM (inactive) | 18.2 µM (inactive) | 27 µM (inactive) | 31.6 µM (inactive) | 43.1 µM (inactive)
7 | O=c1c2cc3c(=O)n4c(cc(-c5ccccc5)c5cc(Cl)ccc54)nc3cc2nc2cc(-c3ccccc3)c3cc(Cl)ccc3n12 | > 100 µM (inactive) | > 100 µM (inactive) | > 100 µM (inactive) | > 100 µM | 43.4 µM (inactive) | > 100 µM (inactive) | > 100 µM (inactive) | > 100 µM (inactive) | > 100 µM (inactive) | > 100 µM (inactive) | > 100 µM (inactive) | > 100 µM (inactive) | 34.8 µM (inactive) | > 100 µM (inactive) | > 100 µM (inactive) | > 100 µM (inactive) | > 100 µM (inactive) | > 100 µM (inactive) | > 100 µM (inactive) | 37.8 µM (inactive)
